“Also recorded” adds a separate entry of the source. Read-outs that look alike come from different tables or passages of the source. Values belong to the compound of their own block, whether it stands above or below them.
Legend:
four melanoma cell lines = assay: Cell proliferation / EC50 determination; settings: read-out: EC50 ranges for the four melanoma cell lines
Description: (§3) A 1% (w/v) resazurin (Sigma-Aldrich #R7017) solution in 1× PBS was made and filter-sterilized. The final concentration of resazurin in the assay was 0.004%. Inside the proliferating cells, mildly fluorescent blue resazurin is reduced to a bright pink fluorescent product called resorufin (stable for 4 hours), which allows for a quantitative measure of the percentage of proliferating cells. In all cases, cells were incubated at 37° C. in 5% CO2 for 45-60 min. for adequate sensitivity of detection. Briefly, cells were seeded at 10,000 cells/cm^2 into 96-well plates and transfected as described above. The resazurin assay was performed 60 hours after transfection (unless specified otherwise) and resorufin absorbance was measured at 570 nm (reference wavelength=600 nm) using Spectramax250 (Molecular Devices, Sunnyvale, Calif.) and SoftmaxPro software.
More specifically, SK-MEL-28 cells (FIG. 8A, panel 1), MALME-3M cells (FIG. 8A, panel 2), MDA-MB-435 cells (FIG. 8A, panel 3), and SK-MEL-5 cells (FIG. 8A, panel 4) were treated with increasing doses of hGH for 48 hr. and cell proliferation was estimated using a resazurin-based metabolic assay.
For treatment of melanoma cells, the following five anti-tumor compounds were obtained from the sources mentioned: cisplatin (Calbiochem #232120, Darmstadt, Germany), doxorubicin (Sigma Aldrich #D-1515, St. Louis, Mo.), oridonin (Sigma-Aldrich #O-9639, St. Louis, Mo.), Paclitaxel (Sigma-Aldrich #C-7191), and vemurafenib/PLX4032 (ApexBio #A-3004, Houston, Tex.). […] In the subsequent experiments, the following drug concentrations were used unless specified otherwise: cisplatin (0.5 μM), doxorubicin (10 nM), oridonin (0.5 μM), paclitaxel (1 nM), vemurafenib (2 nM). Treatments were performed for 24 hours starting 48 hours post-transfection with siRNA.

MALME-3M cells [1] = assay: Cell proliferation (resazurin) assay; type: cell-based, human; settings: Homo sapiens, EC50 levels (cisplatin 10 μM, paclitaxel 5 nM), 24 hr, with and without siRNA mediated KD of GHR
Description: For hGH treatment, 16 hours after seeding (or 24 hours post-transfection), the cells were serum-starved for 2 hours in serum-free growth media, and hGH (phosphate buffered saline was used as control where applicable) was added at the noted concentrations (0-, 5-, 50-, and 150 ng/ml). Cells were subsequently incubated for 24 hours before evaluating RNA levels. Recombinant hGH was purchased from Antibodies Online (#ABIN2017921, Atlanta, Ga.).
On the other hand, a pronounced drop in proliferation levels in all the cell lines was seen when GHR was knocked down. […] Cell proliferation was estimated using resazurin-based metabolic assay. […] Averages of at least four independent experiments performed in quadruplicate were taken [*, p<0.05, Students t-test]. The results may indicate that human melanoma cells utilize GH-GHR interaction to drive aggressive tumor phenotypes.
To determine this, and referring now to FIGS. 35A-35D, changes in amounts of calcein retained inside cells following treatment with calcein-AM ester was analyzed by the fluorescence readout from intracellular calcein. Increased abundance of transporter pumps is reflected by decreased levels of intracellular calcein. […] Assays were performed 48 hr. post-transfection with either scr-siRNA or GHR-siRNA. […] SK-MEL-28 (FIG. 35C) and MALME-3M (FIG. 35D) cells were exposed to DMSO (vehicle), or 10 um cisplatin (Cis), or 5 nM paclitaxel (Pac) for 24 hr. Treatments were done 48 hr. post-transfection with either scr-siRNA (scr) or GHR-siRNA (GHR). Mean of three independent experiments performed in triplicate was taken. [*, p<0.05, Students t test, n=3]

SK-MEL-28 cells [2] = assay: Cell proliferation (resazurin) assay; type: cell-based; settings: Homo sapiens, EC50 levels (cisplatin 10 μM, paclitaxel 5 nM), 24 hr, with and without siRNA mediated KD of GHR
Description: as §3

MALME-3M cells [3] = assay: ABC transporter RNA (RT-qPCR) following drug treatment; type: cell-based, human; settings: for Efflux Pumps (expression level change, p < 0.05): ABC-transporter pumps with significantly down-regulated RNA expressions: 24 hr. drug exposure, GHR-siRNA vs scr-siRNA transfected
Description: (§1) Transfection was performed using siLentFect lipid reagent (Biorad #170-3360, Hercules, Calif.) following the manufacturer's protocol. […] Media was changed after 24 hours. RNA levels were analyzed 48 hours post transfection while protein levels were analyzed at 60 hours post-transfection. For drug treatment, drugs at the specified concentrations noted above were added to the cells 48 hours post-transfection and treated for 24 hours prior to quantitation of RNA expressions.
(§2) RNA extraction, RT-qPCR, and protein extraction were performed as described in Example 1, above.

MDA-MB-435 cells [4] = assay: as above; type: cell-based, human; settings: 24 hr. drug exposure, GHR-siRNA vs scr-siRNA transfected
Description: as §1, §2

SK-MEL-28 cells [5] = assay: as above; type: cell-based, human; settings: for Efflux Pumps (expression level change, p < 0.05): ABC-transporter pumps with significantly down-regulated RNA expressions: 24 hr. drug exposure, GHR-siRNA vs scr-siRNA transfected
Description: as §1, §2

SK-MEL-5 cells [6] = assay: as above; type: cell-based, human; settings: 24 hr. drug exposure, GHR-siRNA vs scr-siRNA transfected
Description: as §1, §2

MDA-MB-435 cells [7] = assay: as above; type: cell-based, human; settings: 24 hr sub-EC50 drug, 50 ng/mL hGH
SK-MEL-5 cells [8] = assay: as above; type: cell-based, human
[9] = 24 hr sub-EC50 drug, 50 ng/mL hGH
[10] = 24-hour drug, presence vs absence of 50 ng/mL GH

EC50 (four melanoma cell lines; Homo sapiens): 2 to 20 nM
SMILES: CCCS(=O)(=O)Nc1ccc(F)c(C(=O)c2c[nH]c3ncc(-c4ccc(Cl)cc4)cc23)c1F [vemurafenib]

EC50 (four melanoma cell lines; Homo sapiens): 2 to 8 nM
SMILES: CC(=O)O[C@H]1C(=O)[C@@]2(C)[C@H]([C@H](OC(=O)c3ccccc3)[C@]3(O)C[C@H](OC(=O)[C@H](O)[C@@H](NC(=O)c4ccccc4)c4ccccc4)C(C)=C1C3(C)C)[C@]1(OC(C)=O)CO[C@@H]1C[C@@H]2O [paclitaxel, Paclitaxel]
inhibition at 0.005 µM (MALME-3M cells [1]): > 90%
inhibition at 0.005 µM (SK-MEL-28 cells [2]): > 90%
ABCB8 RNA level in response to drug (MALME-3M cells [3]; [9]): significant upregulation
ABCC2 RNA level in response to drug (MALME-3M cells [3]; [9]): significantly increased
Efflux Pumps (expression level change, p < 0.05): ABC-transporter pumps with significantly down-regulated RNA expressions (MALME-3M cells [3]): ABCB8, ABCC1, ABCG1
Efflux Pumps (expression level change, p < 0.05): ABC-transporter pumps with significantly down-regulated RNA expressions (MDA-MB-435 cells [4]): ABCB5, ABCB8, ABCG1, ABCG2
ABCG2 RNA expression on drug exposure in presence of GH (SK-MEL-28 cells [5]; [10]): upregulation
ABCB5 RNA level in response to drug (SK-MEL-28 cells [5]; [9]): significantly upregulated
ABCC1 RNA level in response to drug (SK-MEL-28 cells [5]; [9]): particularly upregulated
ABCC2 RNA level in response to drug (SK-MEL-28 cells [5]; [9]): significantly increased
ABCG1 RNA level in response to drug (SK-MEL-28 cells [5]; [9]): surged
ABCG2 RNA level in response to drug (SK-MEL-28 cells [5]; [9]): significantly upregulated
Efflux Pumps (expression level change, p < 0.05): ABC-transporter pumps with significantly down-regulated RNA expressions (SK-MEL-28 cells [5]): ABCB5, ABCC1, ABCG1, ABCG2
Efflux Pumps (expression level change, p < 0.05): ABC-transporter pumps with significantly down-regulated RNA expressions (SK-MEL-5 cells [6]): ABCB8, ABCC1, ABCC2
ABCG1 RNA level in response to drug (MDA-MB-435 cells [7]): surged
ABCB5 RNA expression on drug exposure in presence of GH (SK-MEL-5 cells [8]; [10]): increase
ABCB8 RNA level in response to drug (SK-MEL-5 cells [8]; [9]): significant upregulation
ABCC1 RNA level in response to drug (SK-MEL-5 cells [8]; [9]): particularly upregulated
ABCC2 RNA level in response to drug (SK-MEL-5 cells [8]; [9]): significantly increased

SMILES: N.N.[Cl][Pt][Cl] [cisplatin]
ABCB8 RNA expression on drug exposure in presence of GH (MALME-3M cells [3]; [10]): increase
Efflux Pumps (expression level change, p < 0.05): ABC-transporter pumps with significantly down-regulated RNA expressions (MALME-3M cells [3]): ABCB1
Efflux Pumps (expression level change, p < 0.05): ABC-transporter pumps with significantly down-regulated RNA expressions (MDA-MB-435 cells [4]): ABCB1, ABCB8, ABCC2, ABCG1,; also recorded: ABCG2
ABCB1 RNA level in response to drug (SK-MEL-28 cells [5]; [9]): Significant upregulation
ABCB5 RNA level in response to drug (SK-MEL-28 cells [5]; [9]): significantly upregulated
ABCG1 RNA level in response to drug (SK-MEL-28 cells [5]; [9]): surged
Efflux Pumps (expression level change, p < 0.05): ABC-transporter pumps with significantly down-regulated RNA expressions (SK-MEL-28 cells [5]): ABCB1, ABCB5, ABCB8, ABCG1
Efflux Pumps (expression level change, p < 0.05): ABC-transporter pumps with significantly down-regulated RNA expressions (SK-MEL-5 cells [6]): ABCB1, ABCC1, ABCC2, ABCG2
ABCB1 RNA level in response to drug (MDA-MB-435 cells [7]): Significant upregulation
ABCC2 RNA level in response to drug (MDA-MB-435 cells [7]): significantly increased
ABCG1 RNA level in response to drug (MDA-MB-435 cells [7]): surged
ABCG2 RNA level in response to drug (MDA-MB-435 cells [7]): significantly upregulated
ABCB5 RNA expression on drug exposure in presence of GH (SK-MEL-5 cells [8]; [10]): increase
ABCB8 RNA expression on drug exposure in presence of GH (SK-MEL-5 cells [8]; [10]): increase
ABCG2 RNA expression on drug exposure in presence of GH (SK-MEL-5 cells [8]; [10]): increase
EC50 (four melanoma cell lines): 3000 to 15000 nM
